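In this assay, cells in 96-well plates receive the compound at five concentrations for 48 hours. Endpoints are linearly interpolated between the surrounding concentrations. Here, GI50 denotes the concentration required for 50% inhibition of growth.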 Active and inactive are the calls of the source. No stated cut-off is given here; in the data, active = GI50 up to about 1.1 µM and inactive = higher.
Experiments:
Experiment in all cases: inhibition of tumour cell growth, NCI panel, 48 h
SNB-75 = tested on: SNB-75
HT-29 = tested on: HT-29
UACC-257 = tested on: UACC-257
U-251 = tested on: U-251
M19-MEL = tested on: M19-MEL
ACHN = tested on: ACHN
KM12 = tested on: KM12
SK-MEL-5 = tested on: SK-MEL-5
HOP-62 = tested on: HOP-62
SF-268 = tested on: SF-268
A498 = tested on: A498
RPMI-8226 = tested on: RPMI-8226
Malme-3M = tested on: Malme-3M
UACC-62 = tested on: UACC-62
OVCAR-4 = tested on: OVCAR-4
786-0 = tested on: 786-0
LOX IMVI = tested on: LOX IMVI

Measured: GI50

COc1ccc(Cc2nccc3cc(OC)c(OC)cc23)cc1
inactive: SNB-75 33.1 µM | HT-29 67.9 µM | UACC-257 16.4 µM | U-251 > 100 µM | M19-MEL 98.4 µM | ACHN 43.3 µM | KM12 81.5 µM | SK-MEL-5 35.7 µM | HOP-62 > 100 µM | SF-268 65.5 µM | A498 42.2 µM | RPMI-8226 20.9 µM | Malme-3M > 100 µM | UACC-62 42.2 µM | OVCAR-4 36.5 µM | 786-0 > 100 µM

O=C(O)C12C=CC(C1)c1ccccc12 (stereo not drawn)
inactive: HT-29 > 100 µM | UACC-257 > 100 µM | U-251 > 100 µM | M19-MEL > 100 µM | ACHN > 100 µM | SK-MEL-5 > 100 µM | HOP-62 > 100 µM | SF-268 > 100 µM | LOX IMVI > 100 µM | A498 > 100 µM | RPMI-8226 > 100 µM | Malme-3M > 100 µM | UACC-62 > 100 µM | OVCAR-4 > 100 µM | 786-0 > 100 µM

CCCCN(CCCC)CC(C(=O)Nc1ccccc1)/C(C)=N\NC(=O)c1ccncc1 (stereo not drawn)
inactive: SNB-75 16.9 µM | HT-29 > 100 µM | UACC-257 > 100 µM | U-251 > 100 µM | M19-MEL 68.9 µM | ACHN > 100 µM | KM12 > 100 µM | SK-MEL-5 > 100 µM | HOP-62 > 100 µM | SF-268 > 100 µM | LOX IMVI 81.5 µM | RPMI-8226 > 100 µM | Malme-3M > 100 µM | UACC-62 59.3 µM | OVCAR-4 > 100 µM | 786-0 > 100 µM

COc1ccc(C2S/C(=C\c3cc(OC)c(OC)c(OC)c3)C(=O)N2NC(=O)Cc2ccccc2)cc1 (stereo not drawn)
inactive: SNB-75 67.9 µM | HT-29 > 100 µM | UACC-257 76.6 µM | U-251 > 100 µM | M19-MEL > 100 µM | ACHN > 100 µM | KM12 > 100 µM | SK-MEL-5 22.1 µM | HOP-62 > 100 µM | SF-268 > 100 µM | LOX IMVI > 100 µM | RPMI-8226 > 100 µM | Malme-3M > 100 µM | UACC-62 > 100 µM | OVCAR-4 > 100 µM | 786-0 > 100 µM

Nc1ccn(CCOC(c2ccccc2)P(=O)(O)O)c(=O)n1 (stereo not drawn)
inactive: SNB-75 12.2 µM | HT-29 > 100 µM | UACC-257 > 100 µM | U-251 > 100 µM | M19-MEL > 100 µM | ACHN > 100 µM | KM12 > 100 µM | SK-MEL-5 > 100 µM | SF-268 > 100 µM | LOX IMVI > 100 µM | A498 > 100 µM | Malme-3M > 100 µM | UACC-62 > 100 µM | 786-0 > 100 µM

CC(C)(C)C(=O)Cc1cc2c(cc1C(=O)O)S(=O)(=O)NC(C(C)(C)C)=C2
inactive: SNB-75 > 100 µM | HT-29 > 100 µM | UACC-257 > 100 µM | U-251 > 100 µM | M19-MEL > 100 µM | ACHN > 100 µM | KM12 > 100 µM | HOP-62 > 100 µM | SF-268 > 100 µM | A498 > 100 µM | RPMI-8226 > 100 µM | Malme-3M > 100 µM | UACC-62 > 100 µM | OVCAR-4 > 100 µM | 786-0 > 100 µM

Cn1ncc2cc3c(Nc4ccc(Cl)cc4)cccc3nc21
inactive: SNB-75 19.4 µM | UACC-257 18.9 µM | M19-MEL 22.1 µM | ACHN 15 µM | KM12 17.3 µM | SK-MEL-5 13.1 µM | HOP-62 15 µM | SF-268 15.8 µM | LOX IMVI 14.9 µM | RPMI-8226 10.9 µM | Malme-3M 23 µM | UACC-62 15.1 µM | OVCAR-4 11.8 µM | 786-0 21.6 µM

CC(Oc1cc2oc(=O)cc(-c3ccccc3)c2cc1Cl)C(=O)O (stereo not drawn)
inactive: SNB-75 > 100 µM | HT-29 > 100 µM | UACC-257 > 100 µM | U-251 > 100 µM | M19-MEL > 100 µM | ACHN > 100 µM | KM12 > 100 µM | SK-MEL-5 > 100 µM | HOP-62 > 100 µM | SF-268 > 100 µM | LOX IMVI > 100 µM | A498 > 100 µM | Malme-3M > 100 µM | UACC-62 > 100 µM | OVCAR-4 > 100 µM | 786-0 > 100 µM

CCCCCCCCCCCCCCCC[N+](C)(C)Cc1ccc(C[N+](C)(C)CCCCCCCCCCCCCCCC)cc1
inactive: SNB-75 1.94 µM | HT-29 2.28 µM | UACC-257 3.4 µM | U-251 1.96 µM | M19-MEL 2.67 µM | ACHN 3.71 µM | KM12 2.56 µM | SK-MEL-5 6.12 µM | HOP-62 4.76 µM | SF-268 2.38 µM | LOX IMVI 2.74 µM | A498 > 100 µM | RPMI-8226 2.63 µM | UACC-62 4.13 µM | OVCAR-4 3.23 µM | 786-0 2.5 µM

Source: ChEMBL document CHEMBL1201862, “PubChem BioAssay data set” (2004)
